Test results: patent US9139557B2, “Carboxamide compounds and their use as calpain inhibitors” (Abbott GmbH & Co. KG, priority 2006, dated 2015)

What was measured:
[1] = target: T1, cathepsin L (Homo sapiens, UniProt P07711); experiment: Cathepsin L enzyme inhibition in vitro (kinetic fluorescence assay); assay type: biochemical; settings: Ki(cathepsin L)/Ki(calpain) ratio
T1 construct: cathepsin L—isolated from human liver; purchased Calbiochem 219402; host or cells: human liver (tissue isolate)
Protocol: (§1) Testing for blockade of the corresponding enzymic activities was carried out by means of kinetic fluorescence assays (excitation 390 nm, emission 460 nm).
(§2) Apparent Ki values were calculated from the experimentally determined IC50 values by the Cheng-Prussoff relation assuming a reversible competitive enzyme inhibition. The Km values of the substrates used under the assay conditions indicated above were: 90 μM (Z-Phe-Arg-AMC, cathepsin B), 10 μM (Z-Gly-Pro-Arg-AMC, cathepsin K), 2 μM (Z-Phe-Arg-AMC, cathepsin L), and 30 μM (Z-Val-Val-Arg-AMC, cathepsin S).
(§3) The indicated Ki values are averages of the inhibition constants calculated on the basis of 2 to 4 independent dose-effect plots.
(§4) • 1. Calpain I: • 20 nM calpain-I—isolated from human erythrocytes (Calbiochem #208713), 100 μM Suc-Leu-Tyr-AMC (Bachem #1-1355) as substrate in buffer with 62 mM imidazole, 0.3 mM CaCl2, 0.10% CHAPS, 0.05% BSA, 1 mM DTT at pH 7.3 and room temperature. • 2. Cathepsin B: • 0.25 nM cathepsin B—isolated from human liver (Calbiochem #219362), 100 μM Z-Phe-Arg-AMC (Bachem #1-1160) as substrate 50 mM MES, 2 mM EDTA, 0.05% Brij 35, 2.5 mM L-cysteine, pH 6.0, room temperature. • 3. Cathepsin K: • 3 nM cathepsin K—activated from recombinant human procathepsin K from E. coli (Calbiochem #342001), 10 μM Z-Gly-Pro-Arg-AMC (Biomol #P-142) as substrate in 50 mM MES, 2 mM EDTA, 0.05% Brij 35, 2.5 mM L-cysteine, pH 6.0, room temperature. • 4. Cathepsin L: • 1 nM cathepsin L—isolated from human liver (Calbiochem #219402), 2 μM Z-Phe-Arg-AMC (Bachem #1-1160) as substrate in 50 mM MES, 2 mM EDTA, 0.05% Brij 35, 2.5 mM L-cysteine, pH 6.0, room temperature. • 5. Cathepsin S: • 0.5 nM recombinant human cathepsin S from E. coli (Calbiochem #219343), 20 μM Z-Val-Val-Arg-AMC (Bachem #1-1540) as substrate in 50 mM MES, 2 mM EDTA, 0.05% Brij 35, 2.5 mM L-cysteine, pH 6.0, room temperature.

[2] = target: T2, cathepsin S (Homo sapiens, UniProt P25774); experiment: Cathepsin S enzyme inhibition in vitro (kinetic fluorescence assay); assay type: biochemical; settings: Ki(cathepsin S)/Ki(calpain) ratio
T2 construct: purchased Calbiochem 219343; host or cells: E. coli
Protocol: as §1, §2, §3, §4

T1 sequence (P07711 114-333): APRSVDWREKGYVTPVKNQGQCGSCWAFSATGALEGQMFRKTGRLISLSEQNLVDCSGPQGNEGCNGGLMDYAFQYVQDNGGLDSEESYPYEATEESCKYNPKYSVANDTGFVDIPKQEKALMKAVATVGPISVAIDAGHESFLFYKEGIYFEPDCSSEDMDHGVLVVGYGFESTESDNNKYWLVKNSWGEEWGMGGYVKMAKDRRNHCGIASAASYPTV
T2 sequence (P25774 115-331): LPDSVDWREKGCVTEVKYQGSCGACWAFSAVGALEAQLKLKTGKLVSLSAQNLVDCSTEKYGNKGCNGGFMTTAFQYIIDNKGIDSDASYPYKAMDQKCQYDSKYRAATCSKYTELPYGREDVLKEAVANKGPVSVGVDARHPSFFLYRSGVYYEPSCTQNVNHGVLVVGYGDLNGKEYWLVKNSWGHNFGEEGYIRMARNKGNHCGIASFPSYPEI

Structure (SMILES): CCCCC(NC(=O)c1cccnc1-n1cnc(-c2ccccc2)c1)C(=O)C(N)=O (stereo not shown) [Example 2, N-{1-[Amino(oxo)acetyl]pentyl}-2-(4-phenyl-1H-imidazol-1-yl)nicotinamide]
- Sel cat. L [1]: ++ (++ means a Ki(cathepsin L)/Ki(calpain) ratio of ≧50)

Structure (SMILES): NC(=O)C(=O)C(Cc1ccccc1)NC(=O)c1cccnc1-n1cnc(-c2ccc(Cl)cc2)c1 (stereo not shown) [Example 9, N-(3-Amino-1-benzyl-2,3-dioxopropyl)-2-[4-(4-chlorophenyl)-1H-imidazol-1-yl]nicotinamide]
- Sel cat. L [1]: + (+ means 30≦Ki(cathepsin L)/Ki(calpain)<50)
- Sel cat. S [2]: ++ (++ means a Ki(cathepsin S)/Ki(calpain) ratio of ≧100)

Structure (SMILES): COc1ccc(-c2cn(-c3ncccc3C(=O)NC(Cc3ccccc3)C(=O)C(N)=O)cn2)cc1 (stereo not shown) [Example 13, N-(3-Amino-1-benzyl-2,3-dioxopropyl)-2-[4-(4-methoxyphenyl)-1H-imidazol-1-yl]nicotinamide]
- Sel cat. L [1]: ++ (++ means a Ki(cathepsin L)/Ki(calpain) ratio of ≧50)
- Sel cat. S [2]: + (+ means 50≦Ki(cathepsin S)/Ki(calpain)<100)

Structure (SMILES): CCCCC(NC(=O)c1cccnc1-n1cnc(-c2ccc(N3CCOCC3)cc2)c1)C(=O)C(N)=O.Cl (stereo not shown) [Example 15, N-{1-[Amino(oxo)acetyl]pentyl}-2-[4-(4-morpholin-4-ylphenyl)-1H-imidazol-1-yl]nicotinamide hydrochloride]
- Sel cat. L [1]: ++ (++ means a Ki(cathepsin L)/Ki(calpain) ratio of ≧50)
- Sel cat. S [2]: + (+ means 50≦Ki(cathepsin S)/Ki(calpain)<100)

Structure (SMILES): CCCCC(NC(=O)c1cccnc1-n1cnc(-c2ccc(C(F)(F)F)cc2)c1)C(=O)C(N)=O.Cl (stereo not shown) [Example 17, N-{1-[Amino(oxo)acetyl]pentyl}-2-{4-[4-(trifluoromethyl)phenyl]-1H-imidazol-1-yl}nicotinamide hydrochloride]
- Sel cat. L [1]: ++ (++ means a Ki(cathepsin L)/Ki(calpain) ratio of ≧50)
- Sel cat. S [2]: + (+ means 50≦Ki(cathepsin S)/Ki(calpain)<100)

Structure (SMILES): Cl.NC(=O)C(=O)C(Cc1ccccc1)NC(=O)c1cccnc1-n1cnc(-c2ccc(C(F)(F)F)cc2)c1 (stereo not shown) [Example 18, N-(3-Amino-1-benzyl-2,3-dioxopropyl)-2-{4-[4-(trifluoromethyl)phenyl]-1H-imidazol-1-yl}nicotinamide hydrochloride]
- Sel cat. L [1]: + (+ means 30≦Ki(cathepsin L)/Ki(calpain)<50)
- Sel cat. S [2]: ++ (++ means a Ki(cathepsin S)/Ki(calpain) ratio of ≧100)

Structure (SMILES): CCCCC(NC(=O)c1cc(Cl)cnc1-n1cnc(-c2ccccc2)c1)C(=O)C(N)=O.Cl (stereo not shown) [Example 24, N-{1-[Amino(oxo)acetyl]pentyl}-5-chloro-2-(4-phenyl-1H-imidazol-1-yl)nicotinamide hydrochloride]
- Sel cat. L [1]: + (+ means 30≦Ki(cathepsin L)/Ki(calpain)<50)

Structure (SMILES): NC(=O)C(=O)C(Cc1ccccc1)NC(=O)c1cccnc1-n1ccc(-c2ccc(Cl)cc2)n1 (stereo not shown) [Example 39, N-(3-Amino-1-benzyl-2,3-dioxopropyl)-2-[3-(4-chlorophenyl)-1H-pyrazol-1-yl]nicotinamide]
- Sel cat. L [1]: ++ (++ means a Ki(cathepsin L)/Ki(calpain) ratio of ≧50)
- Sel cat. S [2]: ++ (++ means a Ki(cathepsin S)/Ki(calpain) ratio of ≧100)

Structure (SMILES): CCCCC(NC(=O)c1cccnc1-n1ccc(-c2ccc(OC)cc2)n1)C(=O)C(N)=O (stereo not shown) [Example 49, N-{1-[Amino(oxo)acetyl]pentyl}-2-[3-(4-methoxyphenyl)-1H-pyrazol-1-yl]nicotinamide]
- Sel cat. L [1]: + (+ means 30≦Ki(cathepsin L)/Ki(calpain)<50)
- Sel cat. S [2]: ++ (++ means a Ki(cathepsin S)/Ki(calpain) ratio of ≧100)

Structure (SMILES): NC(=O)C(=O)C(Cc1cccs1)NC(=O)c1cccnc1-n1ccc(-c2ccc(F)cc2)n1 (stereo not shown) [Example 57, N-[3-Amino-2,3-dioxo-1-(2-thienylmethyl)propyl]-2-[3-(4-fluorophenyl)-1H-pyrazol-1-yl]nicotinamide]
- Sel cat. L [1]: ++ (++ means a Ki(cathepsin L)/Ki(calpain) ratio of ≧50)
- Sel cat. S [2]: ++ (++ means a Ki(cathepsin S)/Ki(calpain) ratio of ≧100)

Structure (SMILES): CCCCC(NC(=O)c1cccnc1-n1ccc(-c2cccc(N3CCOCC3)c2)n1)C(=O)C(N)=O (stereo not shown) [Example 59, N-{1-[Amino(oxo)acetyl]pentyl}-2-[3-(3-morpholin-4-ylphenyl)-1H-pyrazol-1-yl]nicotinamide]
- Sel cat. L [1]: ++ (++ means a Ki(cathepsin L)/Ki(calpain) ratio of ≧50)
- Sel cat. S [2]: + (+ means 50≦Ki(cathepsin S)/Ki(calpain)<100)

Structure (SMILES): N#Cc1ccc(-c2ccn(-c3ncccc3C(=O)NC(Cc3ccccc3)C(=O)C(N)=O)n2)cc1 (stereo not shown) [Example 62, N-(3-Amino-1-benzyl-2,3-dioxopropyl)-2-[3-(4-cyanophenyl)-1H-pyrazol-1-yl]nicotinamide]
- Sel cat. L [1]: ++ (++ means a Ki(cathepsin L)/Ki(calpain) ratio of ≧50)
- Sel cat. S [2]: ++ (++ means a Ki(cathepsin S)/Ki(calpain) ratio of ≧100)

Structure (SMILES): NC(=O)C(=O)C(Cc1ccccc1)NC(=O)c1cccnc1-n1cc2ccccc2n1 (stereo not shown) [Example 78, N-(3-Amino-1-benzyl-2,3-dioxopropyl)-2-(2H-indazol-2-yl)nicotinamide]
- Sel cat. L [1]: ++ (++ means a Ki(cathepsin L)/Ki(calpain) ratio of ≧50)
- Sel cat. S [2]: + (+ means 50≦Ki(cathepsin S)/Ki(calpain)<100)

Structure (SMILES): Cc1cn(-c2ncccc2C(=O)NC(Cc2ccccc2)C(=O)C(N)=O)nc1-c1ccccc1 (stereo not shown) [Example 86, N-[3-Amino-2,3-dioxo-1-(phenylmethyl)propyl]-2-(4-methyl-3-phenyl-1H-pyrazol-1-yl)pyridine-3-carboxamide]
- Sel cat. L [1]: ++ (++ means a Ki(cathepsin L)/Ki(calpain) ratio of ≧50)

Structure (SMILES): NC(=O)C(=O)C(Cc1ccccc1)NC(=O)c1ccccc1-n1ccc(-c2ccccc2)n1 (stereo not shown) [Example 106, N-[3-Amino-2,3-dioxo-1-(phenylmethyl)propyl]-2-(3-phenyl-1H-pyrazol-1-yl)benzamide]
- Sel cat. L [1]: + (+ means 30≦Ki(cathepsin L)/Ki(calpain)<50)
- Sel cat. S [2]: ++ (++ means a Ki(cathepsin S)/Ki(calpain) ratio of ≧100)

Structure (SMILES): NC(=O)C(=O)C(Cc1ccccc1)NC(=O)c1cccnc1-n1cc2c(n1)-c1ccccc1OCC2 (stereo not shown) [Example 141, N-[3-Amino-2,3-dioxo-1-(phenylmethyl)propyl]-2-(4,5-dihydro-2H-Mbenzoxepino[5,4-c]pyrazol-2-yl)pyridine-3-carboxamide]
- Sel cat. L [1]: ++ (++ means a Ki(cathepsin L)/Ki(calpain) ratio of ≧50)
- Sel cat. S [2]: ++ (++ means a Ki(cathepsin S)/Ki(calpain) ratio of ≧100)

Structure (SMILES): NC(=O)C(=O)C(Cc1ccccc1)NC(=O)c1cccnc1-n1cc(CCN2CCOCC2)c(-c2ccc(F)cc2)n1 (stereo not shown) [Example 165, N-[3-Amino-2,3-dioxo-1-(phenylmethyl)propyl]-2-[3-(4-fluorophenyl)-4-(2-morpholin-4-ylethyl)-1H-pyrazol-1-yl]pyridine-3-carboxamide]
- Sel cat. S [2]: ++ (++ means a Ki(cathepsin S)/Ki(calpain) ratio of ≧100)

Structure (SMILES): COCc1cn(-c2ncccc2C(=O)NC(Cc2ccccc2)C(=O)C(N)=O)nc1-c1ccc(F)cc1 (stereo not shown) [Example 170, N-[3-Amino-2,3-dioxo-1-(phenylmethyl)propyl]-2-{3-(4-fluorophenyl)-4-[(methyloxy)methyl]-1H-pyrazol-1-yl}pyridine-3-carboxamide]
- Sel cat. L [1]: + (+ means 30≦Ki(cathepsin L)/Ki(calpain)<50)

Structure (SMILES): CN(C)Cc1cn(-c2ncccc2C(=O)NC(Cc2ccccc2)C(=O)C(N)=O)nc1-c1cccc(C(F)(F)F)c1 (stereo not shown) [Example 176, N-[3-Amino-2,3-dioxo-1-(phenylmethyl)propyl]-2-{4-[(dimethylamino)methyl]-3-[3-(trifluoromethyl)phenyl]-1H-pyrazol-1-yl}pyridine-3-carboxamide]
- Sel cat. S [2]: ++ (++ means a Ki(cathepsin S)/Ki(calpain) ratio of ≧100)

Structure (SMILES): NC(=O)C(=O)C(Cc1ccccc1)NC(=O)c1cccnc1-n1cc(CN2CCOCC2)c(-c2cccc(C(F)(F)F)c2)n1 (stereo not shown) [Example 177, N-[3-Amino-2,3-dioxo-1-(phenylmethyl)propyl]-2-{4-(morpholin-4-ylmethyl)-3-[3-(trifluoromethyl)phenyl]-1H-pyrazol-1-yl}pyridine-3-carboxamide]
- Sel cat. S [2]: ++ (++ means a Ki(cathepsin S)/Ki(calpain) ratio of ≧100)

Structure (SMILES): NC(=O)C(=O)C(Cc1ccccc1)NC(=O)c1cccnc1-n1cc(CN2CCCC2)c(-c2cccc(C(F)(F)F)c2)n1 (stereo not shown) [Example 178, N-[3-Amino-2,3-dioxo-1-(phenylmethyl)propyl]-2-{4-(pyrrolidin-1-ylmethyl)-3-[3-(trifluoronnethyl)phenyl]-1H-pyrazol-1-yl}pyridine-3-carboxamide]
- Sel cat. S [2]: ++ (++ means a Ki(cathepsin S)/Ki(calpain) ratio of ≧100)
